In patent publication US20200345637A1, “SUSPENSION COMPOSITIONS OF MULTI-TARGET INHIBITORS” (AIVIVA BIOPHARMA, INC., priority 2018, published 2020):
In brackets after ≈: the same amount, converted by molar mass. Several values for one entry are separate records, joined by “and”; a condition that tells them apart may be missing. Identical values can stand only once. Like-named read-outs stand apart in the source and are kept apart here.

Experiments:
[1] = Terminal sterilization and stability assay of formulated suspension; format: physicochemical; settings: for Assay (% of labeled claim) of Formulated Suspension, 4 months (40° C./75% RH) / Assay (% of labeled claim) of Formulated Suspension, 6 weeks (40° C./75% RH) / Assay (% of labeled claim) of Formulated Suspension, Initial: Gamma irradiation
Source text: (§1) Examples 1-3 depict the results of physical testing of some subject formulations.

[2] = systemic; literature or US label; cited from earlier work
[3] = Aqueous solubility of multi-target inhibitors; format: physicochemical; settings: for solubility: aqueous (not further specified)
Source text: Non-limiting examples of the useful multi-target inhibitors and their physicochemical forms are given in Table 1 with aqueous solubility information.

[4] = Suspension physical testing: particle size, pH, osmolality, syringeability; format: physicochemical; set-up: API Raw Material PSD D50 / Formulated Suspension Particle size distribution D50 / API Raw Material PSD D90 / Formulated Suspension Particle size distribution D90: unit not given here; settings: for Formulated Suspension Syringeability: needle gauge passed
Source text: as §1

[5] = Skin pharmacokinetics after single intradermal injection in minipigs; settings: over 28 days
Method: Pharmacokinetics of axitinib and nintedanib was investigated after a single intradermal injection of 0.1% and 1% suspensions to the dorsum of Yucatan minipigs. The dosing volume was 0.1 mL for each injection. Concentrations of drugs in the epidermis and dermis over 28 days at the injection site and at 2 cm away from the injection site were measured using LCMS/MS method.

[6] = Pharmacokinetics and distribution after intraprostate injections in rats (Example 8); settings: for Plasma concentrations Mean: intraprostate injection
Method: (§2) This study investigated the pharmacokinetics and distribution of axitinib, sorafenib, pirfenidone, and riociguat after intraprostate injections in Wistar rats (n=6-7 per treatment group). Axitinib, sorafenib and riociguat, as 1% w/w suspension, and pirfenidone as 2.5% suspension were administered as single intraprostate injection (a total of 0.2 mL) on Days 15 and 29 in this 42-day study.

[7] = system: linear incision wound sites; assay: Intradermal injection along linear incision wounds, histological evaluation; format: in vivo, minipigs; settings: for granulation tissue formation compared to vehicle treated control wounds / presence of myofibroblasts compared to vehicle treated control wounds: 2% suspension (sorafenib 1% suspension); for SMA staining / dermis fibrin / dermis fibroplasia / dermis provisional matrix / epidermis hyperplasia / inflammation / subcutis fibroplasia / subcutis mixed cell infiltrate: microscopic grade over 29 days
Method: The purpose of this study was to evaluate the suspension formulation when administered via intradermal injection with axitinib, nintedanib, sorafenib, and lenvatinib to the dorsal skin along linear incisions of minipigs.
Four male minipigs were dosed. Animals were dosed once via intradermal injection along the edges of each of 10 wound sites for each animal (5 wounds on each side of the dorsum [perpendicular to the spine], approximately 3 cm in length and 3 cm distance from the spine). Axitinib, nintedanib, lenvatinib, and the vehicle control article were administered via eight 0.1 mL intradermal injections around each respective wound site (one injection/cm on both sides of the wound), for a total volume of 0.8 mL/wound site. Sorafenib was administered via the same method at a volume of 0.2 mL/injection, for a total volume of 1.6 mL/wound site. The vehicle control article was Vehicle for Test Articles axitinib, nintedanib, lenvatinib, and sorafenib.
A generalized measure of inflammation, including inflammatory cell infiltrate, fibrin deposition, fibroplasia, epithelial hyperplasia and areas of tissue necrosis were assessed microscopically. […] For test agent treated wounds, all were graded as slight on Day 4, and there was no consistent difference over time as compared to the control group.

[8] = Local tolerance and ocular distribution, topical instillation three times daily for 5 days
Method: (§3) This study evaluated the local tolerance of vehicle, axitinib, pirfenidone, sorafenib and lenvatinib and ocular distribution of axitinib, sorafenib and lenvatinib (0.3% w/w) when administered by topical ocular instillation in the eyes of New Zealand white rabbits (n=6 per group). […] On Dosing Day 5, the animals were sacrificed and eyes were enucleated. Ocular and plasma concentrations of select compounds were measured by LC-MS/MS.

[9] = rabbit, in vivo
Method: as §3

[10] = rat, in vivo
Method: as §2

[11] = two weeks after the second biweekly intraprostate injection

Row | Structure (SMILES) | Assay (% of labeled claim) of Formulated Suspension, 4 months (40° C./75% RH) [1] | Assay (% of labeled claim) of Formulated Suspension, 6 weeks (40° C./75% RH) [1] | Assay (% of labeled claim) of Formulated Suspension, Initial ([1]; initial) | terminal plasma half-life in man [2] [h] | solubility [3] [µg/mL] | API Raw Material PSD D50 [4] | API Raw Material PSD D90 [4] | Formulated Suspension Osmolality [4] [mOsm/kg] | Formulated Suspension Particle size distribution D50 [4] | Formulated Suspension Particle size distribution D90 [4] | Formulated Suspension pH [4] | Formulated Suspension Syringeability [4] | Plasma concentrations Mean ([6]; Study Day 15, 24 h) [ng/mL] | Plasma concentrations Mean ([6]; Study Day 29, 24 h) [ng/mL] | Plasma concentrations Mean ([6]; Study Day 42, 0 h) | Prostate concentrations Mean [6, 11] [µg/g] | granulation tissue formation compared to vehicle treated control wounds [7] | presence of myofibroblasts compared to vehicle treated control wounds [7] | SMA staining [7] | dermis fibrin [7] | further results
1 | CNC(=O)c1ccccc1Sc1ccc2c(/C=C/c3ccccn3)n[nH]c2c1 [Axitinib] | 95.2 % of labeled claim and 100.9 % of labeled claim | 97.8 % of labeled claim and 98.5 % of labeled claim | 102.0 % of labeled claim and 100.7 % of labeled claim | 2 to 5 | 2 (≈ 5.17 µM) | D50: 5.5 | D90: 9.9 | 206 | D50: 5.8 | D90: 15.6 | 7.6 | Pass 25G | 1.72 | 1.49 | 0.33 ng/mL | 718 | delay in granulation tissue formation | prolonged presence of myofibroblasts | minimal to moderate | slight to moderate | Assay (% of labeled claim) of Formulated Suspension, 4 months (40° C./75% RH) (bottom) ([1]; Autoclave, bottom, tested at 3 months instead of 4 months, 40° C./75% RH): 103.2 % of labeled claim; Assay (% of labeled claim) of Formulated Suspension, Initial (bottom) ([1]; Autoclave, initial, bottom): 100.1 % of labeled claim; Assay (% of labeled claim) of Formulated Suspension, Initial (top) ([1]; Autoclave, initial, top): 98.7 % of labeled claim; Assay (% of labeled claim) of Formulated Suspension, 4 months (40° C./75% RH) (top) ([1]; Autoclave, top, tested at 3 months instead of 4 months, 40° C./75% RH): 101.2 % of labeled claim; mean concentration in the dermis, 2 cm away from the injection site ([5]; 0.1% intradermal injection): 1.2-8 ng/gm; mean concentration in the epidermis, 2 cm away from the injection site ([5]; 0.1% intradermal injection): 4.5-55.2 ng/gm; mean concentration in the dermis, 2 cm away from the injection site ([5]; 1% intradermal injection): 2.9-150 ng/gm; mean concentration in the epidermis, 2 cm away from the injection site ([5]; 1% intradermal injection): 42.3-723 ng/gm; dermis fibroplasia [7]: none to slight; dermis provisional matrix [7]: marked to moderate; epidermis hyperplasia [7]: minimal to slight; inflammation [7]: slight to moderate; subcutis fibroplasia [7]: none to moderate; subcutis mixed cell infiltrate [7]: moderate to minimal; concentration at 5 day of dosing ([8]; New Zealand White, rabbit, plasma, topical, 35 μl eyedrop of 0.3% w/w to the right eye, three times daily): 0.29 ng/mL; concentrations in the choroid and retina [9]: significant concentrations; drug concentrations in anterior tissues of conjunctiva, sclera and cornea [9]: high drug concentrations; drug concentration in prostate [10]: remained high; drug release from prostate into systemic circulation [10]: prolonged drug release
2 | Cc1ccc(=O)n(-c2ccccc2)c1 [Pirfenidone] | 91.5 % of labeled claim and 94.9 % of labeled claim | 89.9 % of labeled claim and 95.7 % of labeled claim | 90.9 % of labeled claim and 97.2 % of labeled claim | – | 3000 (≈ 16200 µM) | D50: 57 | D90: 74 | 312 | D50: 44 | D90: 72 | 7.6 | Pass 23G | 0.381 | 0.454 | BLQ | 0.014 | – | – | – | – | –
3 | COC(=O)N(C)c1c(N)nc(-c2nn(Cc3ccccc3F)c3ncccc23)nc1N [Riociguat] | 99.9 % of labeled claim and 99.7 % of labeled claim | 98.7 % of labeled claim and 98.0 % of labeled claim | 101.9 % of labeled claim and 100.6 % of labeled claim | – | 8 (≈ 18.9 µM) | D50: 16 | D90: 29 | 201 | D50: 9 | D90: 17 | 7.6 | Pass 27G | – | – | – | – | – | – | – | – | Prostate concentrations Mean ([10]; male, Wistar, 2 weeks after the second injection): 492 µg/g; drug concentration in prostate [10]: remained high; drug release from prostate into systemic circulation [10]: prolonged drug release
4 | CNC(=O)c1cc(Oc2ccc(NC(=O)Nc3ccc(Cl)c(C(F)(F)F)c3)cc2)ccn1.Cc1ccc(S(=O)(=O)O)cc1 [Sorafenib Hemi Tosylate] | 99.9 % of labeled claim and 99.6 % of labeled claim | 100.7 % of labeled claim and 100.4 % of labeled claim | 98.9 % of labeled claim and 101.6 % of labeled claim | – | – | D50: 18 | D90: 39 | 216 | D50: 11 | D90: 20 | 7.3 | Pass 27G | – | – | – | 892 | delay in granulation tissue formation | prolonged presence of myofibroblasts | slight to minimal | minimal to none | Aqueous Solubility [3]: 6 µg/mL; drug release from prostate into systemic circulation ([6]; after single intraprostate injections): prolonged drug release; drug concentration in prostate [6, 11]: remained high; dermis fibroplasia [7]: minimal to slight; dermis provisional matrix [7]: slight to none; epidermis hyperplasia [7]: none; inflammation [7]: moderate to minimal; subcutis fibroplasia [7]: minimal to moderate; subcutis mixed cell infiltrate [7]: slight to marked; concentrations in the choroid and retina ([8]; 0.3% w/w topical instillation): significant concentrations; drug concentrations in anterior tissues of conjunctiva, sclera and cornea ([8]; 0.3% w/w topical instillation): high drug concentrations; plasma concentrations, mean (±SD) ([8]; Day 5 of dosing, 0.3% w/w 35 μl eyedrop three times daily): 5.09 (±1.27) ng/mL
5 | CCN(CC)CCNC(=O)c1c(C)[nH]c(/C=C2\C(=O)Nc3ccc(F)cc32)c1C [Sunitinib] | 100.0 % of labeled claim and 95.6 % of labeled claim | 98.9 % of labeled claim and 96.5 % of labeled claim | 96.7 % of labeled claim and 95.1 % of labeled claim | – | 7 (≈ 17.6 µM) | D50: 25 | D90: 52 | 201 | D50: 12 | D90: 26 | 7.6 | Pass 25G | – | – | – | – | – | – | – | – | –
6 | CNC(=O)c1cc(Oc2ccc(NC(=O)Nc3ccc(Cl)c(C(F)(F)F)c3)c(F)c2)ccn1 [regorafenib, Regorafenib] | – | – | – | 28 | – | – | – | – | – | – | – | – | – | – | – | – | – | – | – | – | –
